Laboratory results taken from ChEMBL document CHEMBL1201862, “PubChem BioAssay data set” (2004).
Active and inactive are the calls of the source.

Legend:
Cytochrome P450 3A4 = Cytochrome P450 3A4 (Homo sapiens, UniProt P08684);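 note: CYP3A4 tested as one member of a cytochrome P450 panel screen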
Cytochrome P450 2C9 [1] = target: T1, Cytochrome P450 2C9 (Homo sapiens, UniProt P11712)
BJ [2] = experiment: cytotoxicity toward BJ-TERT fibroblasts, dose response, cell-based, RAS-independent, luminescence (AID 1933); format: functional; details: Homo sapiens
BJ [3] = experiment: cells; format: functional, cell-based; details: Homo sapiens
BJ [4] = experiment: cytotoxicity toward BJ-TERT-LT-ST fibroblasts, dose response, cell-based, RAS-independent, luminescence (AID 1935); format: functional; details: Homo sapiens;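 note: BJ fibroblasts immortalized with TERT plus LT and ST oncogenes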
[5] = cytotoxicity toward DRD oncogenic fibroblasts, dose response, cell-based, non-viral oncogenic, luminescence (AID 1934); format: functional; details: Homo sapiens
BJ [6] = experiment: cytotoxicity toward Ras-transformed BJeLR fibroblasts, dose response, cell-based, alamar blue fluorescence, cherrypicked samples (AID 2631); format: functional; details: Homo sapiens;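 note: confirmatory dose-response assay in RAS-dependent BJ fibroblasts engineered with TERT, LT and ST, with cytotoxicity read by fluorescence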
[7] = target: T2, Short transient receptor potential channel 4 (Mus musculus, UniProt Q9QUQ5); experiment: mouse TRPC4 channel inhibitors, dose response, cell-based, HEK293 TRPC4/mu-opioid, Fluo-4 calcium (AID 434942); format: functional;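 note: potency of inhibitors blocking the TRPC4 calcium response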
T2 sequence (Q9QUQ5 whole entry): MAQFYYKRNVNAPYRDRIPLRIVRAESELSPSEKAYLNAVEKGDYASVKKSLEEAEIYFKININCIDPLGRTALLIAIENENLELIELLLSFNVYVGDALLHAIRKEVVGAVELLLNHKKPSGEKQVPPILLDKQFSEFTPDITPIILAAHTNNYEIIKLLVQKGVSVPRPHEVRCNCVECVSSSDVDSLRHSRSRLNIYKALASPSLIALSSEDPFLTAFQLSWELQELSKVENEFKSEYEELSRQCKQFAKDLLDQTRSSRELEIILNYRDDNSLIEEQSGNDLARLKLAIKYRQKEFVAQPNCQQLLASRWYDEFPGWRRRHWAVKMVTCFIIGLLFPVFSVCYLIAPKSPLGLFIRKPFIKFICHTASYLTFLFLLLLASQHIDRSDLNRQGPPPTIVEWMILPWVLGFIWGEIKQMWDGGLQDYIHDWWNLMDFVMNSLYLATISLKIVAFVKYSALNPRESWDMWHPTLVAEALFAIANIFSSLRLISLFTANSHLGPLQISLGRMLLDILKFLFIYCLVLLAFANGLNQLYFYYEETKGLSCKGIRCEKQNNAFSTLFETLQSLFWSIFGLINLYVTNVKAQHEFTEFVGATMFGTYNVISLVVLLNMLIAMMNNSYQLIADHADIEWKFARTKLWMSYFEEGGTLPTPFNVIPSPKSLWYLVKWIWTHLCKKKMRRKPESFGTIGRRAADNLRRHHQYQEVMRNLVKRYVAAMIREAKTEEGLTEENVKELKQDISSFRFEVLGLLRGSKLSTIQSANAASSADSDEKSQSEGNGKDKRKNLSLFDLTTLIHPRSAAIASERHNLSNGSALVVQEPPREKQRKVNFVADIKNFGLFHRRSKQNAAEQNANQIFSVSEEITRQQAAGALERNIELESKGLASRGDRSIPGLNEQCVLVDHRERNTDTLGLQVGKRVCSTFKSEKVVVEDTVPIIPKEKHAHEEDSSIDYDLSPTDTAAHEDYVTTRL

[8] = target: Peroxisome proliferator-activated receptor gamma/Nuclear receptor coactivator 1 (Homo sapiens, UniProt P37231); experiment: (§1) TR-FRET dose response biochemical High Throughput Screening assay for agonists of the steroid receptor coactivator 1 (SRC-1) recruitment by the peroxisome proliferator-activated receptor gamma (PPAR gamma): non-selective agonists. [Related pubchem assays (depositor defined):AID1300, AID1808, AID504735, AID631]; format: protein assay
[9] = target: Peroxisome proliferator-activated receptor gamma/Nuclear receptor coactivator 3 (Homo sapiens, UniProt P37231); experiment: as §1, with “3 (SRC-3)” for “1 (SRC-1)”, “assays: 1301 (Confirmation screen.), 1048 (Primary screen.)]” for “assays (depositor defined):AID1300, AID1808, AID504735, AID631]”; format: functional
[10] = target: Peroxisome proliferator-activated receptor gamma/Nuclear receptor coactivator 2 (Homo sapiens, UniProt P37231); experiment: TR-FRET dose response biochemical High Throughput Screening assay for agonists of the steroid receptor coactivator 2 (SRC-2) recruitment by the peroxisome proliferator-activated receptor gamma (PPAR gamma): non-selective agonists. [Related pubchem assays: 1297, 1032 ]; format: functional
Cytochrome P450 2C9 [11] = target: T1, Cytochrome P450 2C9; remark: listed apart in the source
[12] = cytotoxicity in HEK-293T cells, dose response, cytotoxicity control for TCR NF-kB inhibitor project, luminescence, T-cell screen hits (AID 489026); format: functional, cell-based;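 note: cells exposed to compound about 14 hours before the viability readout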
Cytochrome P450 2C19 = Cytochrome P450 2C19 (Homo sapiens, UniProt P33261); experiment: Cytochrome panel assay with activity outcomes. Panel member name: p450-cyp2c19 Compounds with AC50 equal or less than 10 uM are considered active; format: functional; details: read-out: AC50
[13] = target: FAD-linked sulfhydryl oxidase ALR (Homo sapiens, UniProt P55789); experiment: inhibitors of human ALR sulfhydryl oxidase, dose response, biochemical, H2O2 detection, luminescence, cherry-pick (AID 493248)
[14] = target: T3, Lysine-specific demethylase 4C (Homo sapiens, UniProt Q9H3R0); experiment: GASC-1 (JMJD2C) histone demethylase inhibitors, dose response, biochemical, DELFIA europium, cherry-picked samples (AID 488835); format: functional
T3 sequence (Q9H3R0 whole entry): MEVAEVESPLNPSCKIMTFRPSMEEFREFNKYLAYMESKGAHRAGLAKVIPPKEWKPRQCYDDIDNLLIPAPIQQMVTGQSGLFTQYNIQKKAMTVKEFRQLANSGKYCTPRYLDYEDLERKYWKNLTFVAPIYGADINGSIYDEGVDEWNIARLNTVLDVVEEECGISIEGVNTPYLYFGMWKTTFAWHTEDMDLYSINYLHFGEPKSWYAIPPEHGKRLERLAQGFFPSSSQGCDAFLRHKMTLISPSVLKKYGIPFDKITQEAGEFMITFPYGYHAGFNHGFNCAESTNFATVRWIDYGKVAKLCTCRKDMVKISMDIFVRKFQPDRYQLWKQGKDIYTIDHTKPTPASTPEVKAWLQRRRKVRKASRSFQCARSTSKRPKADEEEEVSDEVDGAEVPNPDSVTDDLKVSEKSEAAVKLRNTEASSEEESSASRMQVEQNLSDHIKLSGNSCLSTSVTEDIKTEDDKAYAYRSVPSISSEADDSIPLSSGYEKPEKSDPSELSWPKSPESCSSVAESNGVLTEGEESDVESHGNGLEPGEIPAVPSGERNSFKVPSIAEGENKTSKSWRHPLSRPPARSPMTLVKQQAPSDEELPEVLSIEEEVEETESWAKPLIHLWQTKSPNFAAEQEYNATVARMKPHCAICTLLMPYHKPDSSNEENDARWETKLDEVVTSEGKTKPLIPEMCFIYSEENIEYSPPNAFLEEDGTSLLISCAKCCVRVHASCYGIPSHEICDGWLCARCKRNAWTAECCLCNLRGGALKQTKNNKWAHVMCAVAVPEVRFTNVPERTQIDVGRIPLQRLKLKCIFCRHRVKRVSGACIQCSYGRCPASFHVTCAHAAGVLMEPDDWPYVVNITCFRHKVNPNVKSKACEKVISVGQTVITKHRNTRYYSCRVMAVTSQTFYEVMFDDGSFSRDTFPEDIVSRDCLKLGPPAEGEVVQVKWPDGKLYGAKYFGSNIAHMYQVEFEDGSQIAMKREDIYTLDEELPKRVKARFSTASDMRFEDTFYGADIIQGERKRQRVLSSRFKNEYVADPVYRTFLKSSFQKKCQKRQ

Cytochrome P450 3A4, sequence (P08684 whole entry): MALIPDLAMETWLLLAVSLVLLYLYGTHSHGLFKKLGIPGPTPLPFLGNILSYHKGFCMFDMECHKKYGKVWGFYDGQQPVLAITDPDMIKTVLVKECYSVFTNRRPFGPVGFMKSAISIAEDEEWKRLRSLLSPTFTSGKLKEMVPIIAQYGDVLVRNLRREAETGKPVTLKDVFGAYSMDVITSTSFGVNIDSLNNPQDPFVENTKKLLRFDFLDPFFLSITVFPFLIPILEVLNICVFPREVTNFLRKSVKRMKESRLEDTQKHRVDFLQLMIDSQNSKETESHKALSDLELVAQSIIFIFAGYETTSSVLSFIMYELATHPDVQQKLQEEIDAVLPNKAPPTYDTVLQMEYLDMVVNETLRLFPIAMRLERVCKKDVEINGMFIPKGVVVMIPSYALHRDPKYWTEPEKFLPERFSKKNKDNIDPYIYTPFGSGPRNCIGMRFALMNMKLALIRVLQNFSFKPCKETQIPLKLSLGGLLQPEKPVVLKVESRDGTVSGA
T1 sequence (P11712 whole entry): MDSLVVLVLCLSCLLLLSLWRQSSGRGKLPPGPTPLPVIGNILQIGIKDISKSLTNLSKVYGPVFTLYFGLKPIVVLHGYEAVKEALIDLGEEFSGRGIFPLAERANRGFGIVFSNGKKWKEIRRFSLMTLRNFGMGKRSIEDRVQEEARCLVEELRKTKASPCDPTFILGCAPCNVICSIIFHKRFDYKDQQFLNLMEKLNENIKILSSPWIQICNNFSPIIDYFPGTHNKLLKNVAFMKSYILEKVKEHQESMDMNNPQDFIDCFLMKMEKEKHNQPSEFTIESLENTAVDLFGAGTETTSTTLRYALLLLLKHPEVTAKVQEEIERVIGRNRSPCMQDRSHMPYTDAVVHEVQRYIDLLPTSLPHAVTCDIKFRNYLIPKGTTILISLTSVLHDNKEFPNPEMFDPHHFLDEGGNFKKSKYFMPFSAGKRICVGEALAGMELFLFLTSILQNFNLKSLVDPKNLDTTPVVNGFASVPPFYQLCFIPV
Peroxisome proliferator-activated receptor gamma/Nuclear receptor coactivator 1, sequence (P37231 whole entry): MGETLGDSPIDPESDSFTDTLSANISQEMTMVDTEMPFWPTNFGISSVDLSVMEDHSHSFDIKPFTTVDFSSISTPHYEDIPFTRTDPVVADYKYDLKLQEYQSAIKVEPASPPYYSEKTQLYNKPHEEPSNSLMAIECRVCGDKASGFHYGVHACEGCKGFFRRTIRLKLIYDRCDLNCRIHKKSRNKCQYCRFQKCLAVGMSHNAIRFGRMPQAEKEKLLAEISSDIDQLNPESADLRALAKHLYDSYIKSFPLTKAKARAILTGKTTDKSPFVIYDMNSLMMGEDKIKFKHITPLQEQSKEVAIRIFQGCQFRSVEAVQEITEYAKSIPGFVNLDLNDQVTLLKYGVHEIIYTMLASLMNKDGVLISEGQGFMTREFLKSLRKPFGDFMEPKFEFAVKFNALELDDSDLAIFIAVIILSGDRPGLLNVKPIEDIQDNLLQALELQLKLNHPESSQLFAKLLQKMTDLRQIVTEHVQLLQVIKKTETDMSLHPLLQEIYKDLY
Peroxisome proliferator-activated receptor gamma/Nuclear receptor coactivator 1, sequence (Q15788 whole entry, further chain): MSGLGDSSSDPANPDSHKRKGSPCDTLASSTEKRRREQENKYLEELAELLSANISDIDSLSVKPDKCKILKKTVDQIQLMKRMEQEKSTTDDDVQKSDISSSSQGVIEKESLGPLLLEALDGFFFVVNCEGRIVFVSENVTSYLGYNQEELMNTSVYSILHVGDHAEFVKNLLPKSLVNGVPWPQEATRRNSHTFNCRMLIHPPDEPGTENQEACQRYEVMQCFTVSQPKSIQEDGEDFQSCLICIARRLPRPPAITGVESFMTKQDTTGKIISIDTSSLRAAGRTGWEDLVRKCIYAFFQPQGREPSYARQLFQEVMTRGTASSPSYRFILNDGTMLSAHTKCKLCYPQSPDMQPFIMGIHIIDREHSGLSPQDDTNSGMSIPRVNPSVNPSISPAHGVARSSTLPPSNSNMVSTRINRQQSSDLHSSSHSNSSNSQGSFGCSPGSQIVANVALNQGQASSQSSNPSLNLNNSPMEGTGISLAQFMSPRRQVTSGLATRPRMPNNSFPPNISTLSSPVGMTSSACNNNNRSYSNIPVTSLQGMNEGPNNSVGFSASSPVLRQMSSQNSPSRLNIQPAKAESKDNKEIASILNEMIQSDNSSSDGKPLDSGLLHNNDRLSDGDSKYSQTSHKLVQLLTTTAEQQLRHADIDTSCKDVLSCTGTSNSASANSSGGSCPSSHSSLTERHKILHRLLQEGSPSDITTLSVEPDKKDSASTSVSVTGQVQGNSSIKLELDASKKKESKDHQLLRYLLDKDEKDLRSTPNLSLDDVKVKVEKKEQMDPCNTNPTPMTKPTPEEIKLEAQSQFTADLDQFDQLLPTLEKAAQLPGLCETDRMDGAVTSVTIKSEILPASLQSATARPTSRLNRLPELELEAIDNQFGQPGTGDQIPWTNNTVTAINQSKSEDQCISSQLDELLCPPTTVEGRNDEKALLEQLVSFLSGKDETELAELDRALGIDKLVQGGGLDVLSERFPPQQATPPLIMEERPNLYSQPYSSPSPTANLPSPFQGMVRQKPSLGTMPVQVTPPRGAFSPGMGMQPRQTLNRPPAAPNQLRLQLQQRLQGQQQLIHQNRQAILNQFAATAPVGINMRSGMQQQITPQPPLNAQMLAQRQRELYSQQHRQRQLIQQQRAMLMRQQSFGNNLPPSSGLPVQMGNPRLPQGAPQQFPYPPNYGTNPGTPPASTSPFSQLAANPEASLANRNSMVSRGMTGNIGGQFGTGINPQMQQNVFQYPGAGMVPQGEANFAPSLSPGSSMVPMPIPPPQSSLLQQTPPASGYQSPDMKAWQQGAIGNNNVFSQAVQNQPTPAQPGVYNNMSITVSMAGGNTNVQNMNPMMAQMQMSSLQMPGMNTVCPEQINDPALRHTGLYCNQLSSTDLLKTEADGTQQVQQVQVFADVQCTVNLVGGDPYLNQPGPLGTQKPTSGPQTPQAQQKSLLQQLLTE
Peroxisome proliferator-activated receptor gamma/Nuclear receptor coactivator 3, sequence (P37231 whole entry): as the sequence (P37231 whole entry) above
Peroxisome proliferator-activated receptor gamma/Nuclear receptor coactivator 3, sequence (Q9Y6Q9 whole entry, further chain): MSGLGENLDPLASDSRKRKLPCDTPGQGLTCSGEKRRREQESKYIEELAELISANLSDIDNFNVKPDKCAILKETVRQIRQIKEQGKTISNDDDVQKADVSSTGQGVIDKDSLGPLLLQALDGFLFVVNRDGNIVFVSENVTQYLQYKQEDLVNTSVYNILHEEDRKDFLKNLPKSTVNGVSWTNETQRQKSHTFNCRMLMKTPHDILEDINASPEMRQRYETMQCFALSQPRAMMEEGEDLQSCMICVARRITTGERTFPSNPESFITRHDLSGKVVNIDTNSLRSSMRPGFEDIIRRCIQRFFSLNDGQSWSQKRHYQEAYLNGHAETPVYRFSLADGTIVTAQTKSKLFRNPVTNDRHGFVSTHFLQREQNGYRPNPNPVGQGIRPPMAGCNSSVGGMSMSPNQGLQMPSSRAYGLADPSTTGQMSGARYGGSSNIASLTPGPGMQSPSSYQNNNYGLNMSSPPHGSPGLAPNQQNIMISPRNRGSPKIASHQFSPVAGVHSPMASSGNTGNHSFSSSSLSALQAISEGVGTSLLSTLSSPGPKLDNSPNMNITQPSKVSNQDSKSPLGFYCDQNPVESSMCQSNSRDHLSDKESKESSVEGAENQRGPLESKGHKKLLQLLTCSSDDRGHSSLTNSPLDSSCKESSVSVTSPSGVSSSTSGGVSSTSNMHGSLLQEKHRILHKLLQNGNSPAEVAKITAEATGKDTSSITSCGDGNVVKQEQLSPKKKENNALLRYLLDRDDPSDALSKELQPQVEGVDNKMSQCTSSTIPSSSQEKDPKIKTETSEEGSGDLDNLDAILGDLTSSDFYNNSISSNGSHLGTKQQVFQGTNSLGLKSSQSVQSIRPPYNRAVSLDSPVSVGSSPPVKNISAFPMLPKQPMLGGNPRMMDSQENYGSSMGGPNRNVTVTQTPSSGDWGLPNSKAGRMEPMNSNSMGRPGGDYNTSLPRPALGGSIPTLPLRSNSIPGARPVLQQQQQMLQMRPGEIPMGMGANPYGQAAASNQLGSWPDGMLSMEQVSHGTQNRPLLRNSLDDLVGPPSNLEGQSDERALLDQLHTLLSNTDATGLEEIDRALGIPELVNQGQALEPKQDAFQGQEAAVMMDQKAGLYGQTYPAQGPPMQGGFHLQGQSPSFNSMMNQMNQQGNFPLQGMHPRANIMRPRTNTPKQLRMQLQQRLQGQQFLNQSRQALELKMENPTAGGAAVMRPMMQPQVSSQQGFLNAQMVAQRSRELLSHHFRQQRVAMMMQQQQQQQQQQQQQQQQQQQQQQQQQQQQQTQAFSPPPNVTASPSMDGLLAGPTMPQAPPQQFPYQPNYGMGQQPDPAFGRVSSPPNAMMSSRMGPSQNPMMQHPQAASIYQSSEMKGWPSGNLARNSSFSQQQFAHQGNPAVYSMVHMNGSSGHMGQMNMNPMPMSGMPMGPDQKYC
FAD-linked sulfhydryl oxidase ALR, sequence (P55789 whole entry): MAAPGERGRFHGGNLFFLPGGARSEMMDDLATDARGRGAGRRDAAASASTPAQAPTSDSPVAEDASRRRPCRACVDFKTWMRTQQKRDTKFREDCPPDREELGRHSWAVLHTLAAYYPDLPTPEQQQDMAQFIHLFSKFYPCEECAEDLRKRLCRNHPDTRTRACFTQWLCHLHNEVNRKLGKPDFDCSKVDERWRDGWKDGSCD

## C/C(Nc1c(C)n(C)n(-c2ccccc2)c1=O)=C1/C(=O)NC(=O)N(Cc2ccccc2)C1=O
Cytochrome P450 3A4
  AC50: inconclusive
Cytochrome P450 2C9 [1]
  AC50: inconclusive

## N=c1c2c(-c3ccccc3)c(-c3ccccc3)n(Cc3ccco3)c2ncn1CCCn1ccnc1
BJ [2]
  EC50: 9.46 µM (active)
BJ [3]
  EC50: 22.5 µM (active)
BJ [4]
  EC50: > 75 µM (not active)
[5]
  EC50: 9.54 µM (active)
BJ [6]
  EC50: 1.81 µM (active)

## CCOCc1cn(CC(=O)c2ccc(Cl)cc2)c(C)nc1=N
[7]
  EC50: 2.99 µM (active)

## NS(=O)(=O)c1ccc(-c2ccc(/C=C3\C(=O)Nc4cc(Cl)ccc43)o2)cc1
[8]
  EC50: 19.7 µM (inactive)
[9]
  EC50: > 26.5 µM (not active)
[10]
  EC50: 9.96 µM (active)

## C=CCN1CCc2c(cc(O)c(O)c2Br)[C@H](c2ccccc2)C1
Cytochrome P450 2C9 [11]
  AC50: 31.6 µM (inconclusive)
Cytochrome P450 3A4
  AC50: inconclusive

## CCOCCCNC(=O)c1cc2c(=O)n3cccc(C)c3nc2n1C
[12]
  IC50: > 80 µM (inactive)

## CCC(=O)O[C@H]1CC[C@H]2[C@@H]3CCC4=CC(=O)CC[C@]4(C)[C@H]3CC[C@]12C [TESTOSTERONE PROPIONATE]
Cytochrome P450 2C19
  AC50: 10 µM (inconclusive)
Cytochrome P450 2C9 [11]
  AC50: 12.6 µM (inconclusive)
Cytochrome P450 3A4
  AC50: inconclusive

## c1ccc(-c2nc(-c3ccco3)cs2)nc1
[13]
  AC50: 0.593 µM (active)
[14]
  AC50: 20 µM (active)
